# What was measured:
# Huh7 cells = assay: XTT cytotoxicity assay in Huh7 cells; assay type: cell-based, human; conditions: 0.4 to 400 μM, 72 hours
# Experimental: Cytotoxicity properties were titrated by metabolism monitoring using the XTT [2,3-bis-(2-methoxy-4-nitro-5-sulfophenyl)-2H-tetrazolium-5-carboxanilide] assay kit (Roche, Millipore Sigma), as described before ([24]). Briefly, Huh7 cells were seeded at 10 × 10^3 cells per well in 96-well plates. […] After 72 h of incubation, medium was replaced by phenol-free DMEM (Wisent) containing 0.3 mg/ml XTT, and cells were incubated for 4 h. Absorbance was measured at 450nm using a microplate spectrophotometer (Synergy H1, Biotek). Treatment conditions with 0.5% DMSO were used as the reference control. The percentage of cell viability was calculated at each concentration.
# ZIKVR2A [1] = conditions: CC50/EC50, Huh7.5
# ZIKVR2A [2] = assay: microbe, parasite or virus in culture; conditions: Zika virus, Huh7.5, read-out: EC50 (μM) for ZIKVR2A, Huh7.5 cells, luciferase at 48 hpi
# [3] = Cell viability (ATP, Cell-Titer GLO) in Huh7.5 cells; assay type: cell-based; conditions: human, Huh7.5 cells; Huh7.5, ATP, 48 h posttreatment; read-out: CC50
# Experimental: (§1) Where indicated for Huh7.5 and Vero E6 cells and PBMCs, cell viability was measured by monitoring of cellular ATP levels using the Cell-Titer GLO assay kit (Promega). Briefly, 10× 10^3 to 20 × 10^3 cells in 50 to 100 μl were seeded in 48-well or 96-well plates and cultured overnight. AAs were added at the designated concentrations for 24 or 48 h, as specified in the text. Then, 50 to 100 μl of room temperature Cell-Titer GLO reagent was added in each well to room temperature-equilibrated cell plates. Plates were rocked for 2 min and rested for 10 min, and the luminescence signal was measured using a microplate spectrophotometer (Biotek Synergy H1 or Tecan Spark multimode microplate reader). Viability was expressed as a fold change calculated using the value of DMSO-treated cells at each concentration; for each AA and CC50, values were determined.
# DENVR2A [4] = assay: microbe, parasite or virus in culture; conditions: Dengue virus, Huh7.5, read-out: EC50 (μM) for DENVR2A
# DENVR2A [5] = conditions: CC50/EC50, Huh7.5
# DENVGFP [6] = assay: DENVGFP reporter virus infection of Huh7 cells (flow cytometry / microscopy); conditions: Huh7, treated 2 h before DENVGFP MOI 0.15, 72 hpi, at the chosen concentration
# ZIKV NS5 RdRp = system: ZIKV NS5 RdRp; parameters: method as in PMID 32452420; conditions: 100 μM; cited from earlier work
# West Nile virus NS5 = system: West Nile virus NS5; parameters: method as in PMID 19062063; conditions: cited from earlier work
# DENV2 16881s = assay: Plaque assay, infectious titers of WT DENV2 16881s from Huh7.5 cells; assay type: cell-based, dengue virus (DENV); conditions: AAs 50 μM, treated 2 hpi, supernatant 48 h later
# Experimental: Huh7.5 cells were infected with DENV 16881s, ZIKV H/PF/2013, or ZIKV MR766 (MOI, 0.1) or left uninfected. […] Supernatants were harvested 2 days pi, and PFU were determined by plaque assay on VeroE6 cells. Cells incubated overnight (2 × 10^5 cells/well in 24-well plates) were infected with 10-fold serially diluted virus-containing supernatants for 2 h at 37°C. Inoculum was then replaced with MEM (Life Technologies) containing 1.5% carboxymethylcellulose (Millipore-Sigma). ZIKV- and DENV-infected cells were incubated for 5 and 7 days, respectively. One volume of 10% formaldehyde was added to the cells for fixation. Two hours later, cells were washed with tap water and stained with a 1% crystal violet/10% ethanol solution for 30 min. Wells were rinsed with tap water, and the number of plaques were counted to calculate virus titers.
# PBMCs = assay: Cytotoxicity in PBMCs (ATP); assay type: cell-based, human; conditions: 48 h posttreatment, cherylline 30 μM
# Experimental: as §1
# ZIKV MR766 = assay: Plaque assay, infectious titers of WT ZIKV MR766 from Huh7.5 cells; assay type: cell-based, Zika virus (ZIKV); conditions: treated 2 hpi, supernatant 48 h later
# ZIKV H/PF/2013 = assay: Plaque assay, infectious titers of WT ZIKV H/PF/2013 from Huh7.5 cells; assay type: cell-based, Zika virus (ZIKV); conditions: treated 2 hpi, supernatant 48 h later
# DENVGFP [7] = assay: Time-of-drug-addition and -removal assays, DENVGFP in Huh7 cells; assay type: cell-based, dengue virus (DENV); conditions: NITD008 10 μM
# Experimental: For the time-of-drug-addition assay, at the time of infection, AAs were added in wells corresponding to 0 h. At 2 hpi, viral inoculum was removed from every well, and AAs were added back to wells corresponding to 0 h and 2 h. At 4, 7, 12, and 24 hpi, AAs or DMSO diluted in DMEM was added to the appropriate wells. After 72 h, cells were trypsinized and fixed in 4% formaldehyde to measure the percentage of infected cells on an FC500 MPL cytometer. Alternatively, pictures of Hoechst 33342-stained cells were acquired on an Axio Observer microscope. All assays were performed in triplicate.
# At 2 hpi, plates were washed, and medium was replaced to remove remaining viruses in the supernatant. AAs were added back to all wells, except the ones corresponding to 2 h of treatment, in which fresh medium exclusive of any AA was added. Accordingly, after 4, 7, and 12 h of infection, the supernatant was replaced by fresh medium in corresponding wells. After 72 h of incubation, results were acquired as for the time-of-drug-addition assay. All assays were performed in triplicate.
# DENV = system: DENV; parameters: method as in PMID 20496087; conditions: read-out: EC50, inhibition of DENV; cited from earlier work
compound,measurement,setting,value
"O[C@H]1[C@H]2c3cc4c(cc3CN3CCC(=C[C@@H]1O)[C@H]23)OCO4 [Lycorine, lycorine]",cytotoxic activity of AAs,Huh7 cells,cytotoxic
same,SI ZIKVR2A (therapeutic selectivity index),ZIKVR2A [1],35.4
same,EC50,ZIKVR2A [2],0.41 µM
same,CC50 at 48 h,[3],14.5 µM
same,EC50,DENVR2A [4],0.16 µM
same,SI DENVR2A (therapeutic selectivity index),DENVR2A [5],90.6
same,"anti-DENV activity in screening (GFP microscopy, words)",DENVGFP [6],sharp decrease in DENV-GFP-infected cells
same,inhibition of ZIKV NS5 RdRp activity in vitro,ZIKV NS5 RdRp,80%
same,effect on West Nile virus NS5,West Nile virus NS5,no effect
"C#C[C@@]1(O)[C@H](O)[C@@H](CO)O[C@H]1n1ccc2c(N)ncnc21 [NITD008, reference compound]",production of DENV infectious particles (words),DENV2 16881s,completely hindered the production of infectious particles
same,cytotoxicity in PBMCs,PBMCs,cytotoxic in PBMCs
same,production of ZIKV MR766 infectious particles (words),ZIKV MR766,completely hindered the production of infectious particles
same,production of ZIKV H/PF/2013 infectious particles (words),ZIKV H/PF/2013,completely hindered the production of infectious particles
same,time of drug addition: effect on DENVGFP-infected Huh7 cells 72 hpi,"DENVGFP [7]; added at 0, 2, 4, 7, or 12 hpi",abrogated GFP expression
same,time of drug addition: effect on DENVGFP-infected Huh7 cells 72 hpi,"DENVGFP [7]; added at 24 hpi, cherylline 50 μM",Low levels of infection rose
COc1cc2c(cc1OC)-c1cc3ccc(OC)c(OC)c3c[n+]1CC2 [Palmatine],EC50,DENV,26.4 µM

# Source: PMC8370201, “Amaryllidaceae Alkaloid Cherylline Inhibits the Replication of Dengue and Zika Viruses” (Antimicrobial Agents and Chemotherapy, 2021)
